Read-outs that look alike come from different tables or passages of the source.

For one assay, the target named is T1, recombinant BRD4 BD1 (Homo sapiens, UniProt O60885).
T1 construct: for recombinant BRD4 BD1 and BRD4 BD2 proteins
Kind of assay: Competitive fluorescence-polarization (FP) binding assay, BRD4 BD1. The protocol: Fluorescence Polarization (FP) competitive binding studies were carried out using a FAM labeled fluorescent probe, see, e.g., Cpd. No. 350 of US 2014/0256706, to determine binding affinities of representative Compounds of the Disclosure for recombinant BRD4 BD1 and BRD4 BD2 proteins. Equilibrium dissociation constants (Kd) values of the fluorescent probe to BRD4 BD1 and BD2 proteins were determined from protein saturation experiments by monitoring the total fluorescence polarization of mixtures composed with the fluorescent probe at a fixed concentration and proteins with increasing concentrations up to full saturation. Serial dilutions of testing proteins were mixed with the fluorescent probe to a final volume of 200 μl in the assay buffer (100 mM phosphate buffer, pH=6.5, 0.01% Triton X-100 (Sigma, 282103) being added right before assays). Final fluorescent probe concentration was 1.5 nM for both proteins. Plates were incubated at room temperature for 30 minutes with gentle shaking to assure equilibrium. FP values in millipolarization units (mP) were measured using the Infinite M-1000 plate reader (Tecan U.S., Research Triangle Park, N.C.) in Microfluor 1 96-well, black, round-bottom plates (Thermo Scientific, Waltham, Mass.) at an excitation wavelength of 485 nm and an emission wavelength of 530 nm. Kd values of the fluorescent probe, which were calculated by fitting the sigmoidal dose-dependent FP increases as a function of protein concentrations using Graphpad Prism 6.0 software (Graphpad Software, San Diego, Calif.), are 5.5 and 3.0 nM to BDR4 BD1 and 2, respectively.
The IC50 and Ki values of compounds were determined in a competitive binding experiment. See US 2014/0256706. Mixtures of 10 μl of the tested compounds in assay buffer with 40% Ethylene Glycol and 190 μl of preincubated protein/probe complex solution in the assay buffer (100 mM potassium phosphate, pH 6.5, 0.01% Triton X-100) were added into assay plates which were incubated at room temperature for 30 minutes with gentle shaking. Final concentrations of proteins were 10 and 6 nM in assays for BRD4 BD1 and BD2, respectively. Final probe concentration is 1.5 nM in both assays. Negative controls containing protein/probe complex only (equivalent to 0% inhibition), and positive controls containing only free probes (equivalent to 100% inhibition), were included in each assay plate. FP values were measured as described above. IC50 values were determined by nonlinear regression fitting of the competition curves. Instead of being calculated from IC50 values as described before. Ki values of competitive inhibitors were obtained directly by nonlinear regression fitting as well, based upon the Kd values of the probe to different proteins, and concentrations of the proteins and probes in the competitive assays (US 2014/0256706; Wang, FEBS Lett. 360:111 (1995); Zhang et al., Analytical Biochemistry, 331:138 (2004)).
Representative compounds in Table 5 were evaluated for their binding affinities to BRD4 BD1 and BD2 proteins using the Competitive Fluorescence-Polarization (FP) Assays described in Example 6, with the data included in Table 6.

A further assay has as its system MDA-MB-231. Kind of assay: Cell growth inhibition, 4-day proliferation assay, MDA-MB-231. Type of assay: cell-based. The note with it: Homo sapiens. The procedure, abridged: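 WST-8 colorimetric read-out (absorbance 450 nm after 1-2 h) after 4-day compound exposure of 3,000-10,000 cells/well at 37 °C; IC50 from variable-slope sigmoid fit of DMSO-normalized signal.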

The next assay addresses T2, recombinant BRD4 BD2 (Homo sapiens, UniProt O60885).
T2 construct: for recombinant BRD4 BD1 and BRD4 BD2 proteins
Kind of assay: Competitive fluorescence-polarization (FP) binding assay, BRD4 BD2.

The next assay relates to MOLM-13. The assay is described as follows: Cell growth inhibition, 4-day proliferation assay, MOLM-13. It counts as cell-based. The note with it: Homo sapiens.
[1] abbreviates: competitive FP, Table 6, read-out: IC50 as determinined in FP assays BRD4 BD1.
The mark [2] stands for this setting: MDA-MB-231, WST-8 assay, Table 7, read-out: Cell growth inhibition (IC50 (nM)) MDA-MB-231.
Where [3] appears, read: competitive FP, Table 6, read-out: IC50 as determinined in FP assays BRD4 BD2.
[4] abbreviates: MOLM-13, WST-8 assay, Table 7, read-out: Cell growth inhibition (IC50 (nM)) MOLM-13.
[5] abbreviates: MOLM-13, 96 h, read-out: Cell IC50 (nM) MOLM13.

For the compound `Cc1c(C#Cc2cnn(CCC(N)=O)c2)sc2c1C(c1ccc(Cl)cc1)=N[C@@H](C)c1nnc(C)n1-2` [Compound 103, (S)-3-(4-((4-(4-chlorophenyl)-3,6,9-trimethyl-6H-thieno[3,2-f][1,2,4]triazolo[4,3-a][1,4]diazepin-2-yl)ethynyl)-1H-pyrazol-1-yl)propanamide], the IC50 on recombinant BRD4 BD1 stood at 4 nM; in the assay with MDA-MB-231 (MDA-MB-231, read-out: Cell growth inhibition (IC50 (nM)) MDA-MB-231) it was 60 ± 20 nM; on recombinant BRD4 BD2, 15.4 nM.
For the compound `CNC(=O)CCn1cc(C#Cc2sc3c(c2C)C(c2ccc(Cl)cc2)=N[C@@H](C)c2nnc(C)n2-3)cn1` [Compound 104, (S)-3-(4-((4-(4-chlorophenyl)-3,6,9-trimethyl-6H-thieno[3,2-f][1,2,4]triazolo[4,3-a][1,4]diazepin-2-yl)ethynyl)-1H-pyrazol-1-yl)-N-methylpropanamide], the 50% inhibitory concentration (IC50) was determined as 4.9 nM on recombinant BRD4 BD1 (setting [1]), 40 ± 10 nM in the assay on MDA-MB-231 (setting [2]) and 45.1 nM on recombinant BRD4 BD2 (setting [3]).
With `Cc1c(C#Cc2ccccn2)sc2c1C(c1ccc(Cl)cc1)=N[C@@H](CC(C)C)c1nnc(C)n1-2` [Compound 105, (S)-4-(4-chlorophenyl)-6-isobutyl-3,9-dimethyl-2-(pyridin-2-ylethynyl)-6H-thieno[3,2-f][1,2,4]triazolo[4,3-a][1,4]diazepine], the IC50 came out at 33.9 nM on recombinant BRD4 BD1 (setting [1]), 400 ± 200 nM in the assay with MDA-MB-231 (setting [2]), 348 nM with MOLM-13 (setting [4]) and 26.5 nM on recombinant BRD4 BD2 (setting [3]).
Turning to `Cc1c(C#Cc2cccnc2)sc2c1C(c1ccc(Cl)cc1)=N[C@@H](CC(=O)OC(C)(C)C)c1nnc(C)n1-2` [Compound 111, tert-butyl (S)-2-(4-(4-chlorophenyl)-3,9-dimethyl-2-(pyridin-3-ylethynyl)-6H-thieno[3,2-f][1,2,4]triazolo[4,3-a][1,4]diazepin-6-yl)acetate], the IC50 at recombinant BRD4 BD1 (setting [1]) was found to be 4.8 nM; with MDA-MB-231 (setting [2]), 98.6 nM; in the assay with MOLM-13 (setting [4]) it was 32.7 nM; on recombinant BRD4 BD2 (setting [3]), 17 nM.
On to `Cc1c(C#Cc2cccnc2)sc2c1C(c1ccc(Cl)cc1)=N[C@@H](CC(=O)O)c1nnc(C)n1-2` [Compound 112, (S)-2-(4-(4-chlorophenyl)-3,9-dimethyl-2-(pyridin-3-ylethynyl)-6H-thieno[3,2-f][1,2,4]triazolo[4,3-a][1,4]diazepin-6-yl)acetic acid], for which the IC50 came to 86.2 nM on recombinant BRD4 BD1 (setting [1]), 1860 nM in the assay on MDA-MB-231 (setting [2]), 644 nM in the assay with MOLM-13 (setting [4]) and 23 nM on recombinant BRD4 BD2 (setting [3]).
Turning to `Cc1c(C#Cc2cccnc2)sc2c1C(c1ccc(Cl)cc1)=N[C@@H](CC(N)=O)c1nnc(C)n1-2` [Compound 113, (S)-2-(4-(4-chlorophenyl)-3,9-dimethyl-2-(pyridin-3-ylethynyl)-6H-thieno[3,2-f][1,2,4]triazolo[4,3-a][1,4]diazepin-6-yl)acetamide], the IC50 on recombinant BRD4 BD1 (setting [1]) was 4.1 nM; with MDA-MB-231 (setting [2]), 23.9 nM; with MOLM-13 (setting [4]), 2.7 nM; on recombinant BRD4 BD2 (setting [3]), 11.4 nM.
Taken in the same sequence, the figures for `CCNC(=O)C[C@@H]1N=C(c2ccc(Cl)cc2)c2c(sc(C#Cc3cccnc3)c2C)-n2c(C)nnc21` [Compound 114, (S)-2-(4-(4-chlorophenyl)-3,9-dimethyl-2-(pyridin-3-ylethynyl)-6H-thieno[3,2-f][1,2,4]triazolo[4,3-a][1,4]diazepin-6-yl)-N-ethylacetamide] were 8.2 nM, 39.4 nM, 13.8 nM and 4.7 nM.
For `Cc1c(C#Cc2cccnc2)sc2c1C(c1ccc(Cl)cc1)=N[C@@H](CC(=O)N1CCN(C)CC1)c1nnc(C)n1-2` [Compound 115, (S)-2-(4-(4-chlorophenyl)-3,9-dimethyl-2-(pyridin-3-ylethynyl)-6H-thieno[3,2-f][1,2,4]triazolo[4,3-a][1,4]diazepin-6-yl)-1-(4-methylpiperazin-1-yl)ethan-1-one], the IC50 on recombinant BRD4 BD1 (setting [1]) came out at 9.6 nM; with MDA-MB-231 (setting [2]), 65.1 nM; in the assay on MOLM-13 (setting [4]), 21.9 nM; on recombinant BRD4 BD2 (setting [3]) it was 6.3 nM.
For `Cc1c(C#Cc2cccnc2)sc2c1C(c1ccc(Cl)cc1)=N[C@@H](CC(=O)N1CCNCC1)c1nnc(C)n1-2` [Compound 116, (S)-2-(4-(4-chlorophenyl)-3,9-dimethyl-2-(pyridin-3-ylethynyl)-6H-thieno[3,2-f][1,2,4]triazolo[4,3-a][1,4]diazepin-6-yl)-1-(piperazin-1-yl)ethan-1-one], the IC50 on recombinant BRD4 BD1 (setting [1]) was 10.4 nM; in the assay on MDA-MB-231 (setting [2]), 45.3 nM; in the assay with MOLM-13 (setting [4]), 17.3 nM; on recombinant BRD4 BD2 (setting [3]), 122 nM.
As for `Cc1c(C#Cc2cccnc2)sc2c1C(c1ccc(Cl)cc1)=N[C@@H](CC(=O)N1CCC(O)CC1)c1nnc(C)n1-2` [Compound 117, (S)-2-(4-(4-chlorophenyl)-3,9-dimethyl-2-(pyridin-3-ylethynyl)-6H-thieno[3,2-f][1,2,4]triazolo[4,3-a][1,4]diazepin-6-yl)-1-(4-hydroxypiperidin-1-yl)ethan-1-one], the IC50 amounted to 6.3 nM at recombinant BRD4 BD1 (setting [1]), 79.6 nM with MDA-MB-231 (setting [2]), 19.8 nM in the assay on MOLM-13 (setting [4]) and 10.4 nM on recombinant BRD4 BD2 (setting [3]).
For the compound `Cc1c(C#Cc2cccnc2)sc2c1C(c1ccc(Cl)cc1)=N[C@@H](CC(=O)N1CCOCC1)c1nnc(C)n1-2` [Compound 118, (S)-2-(4-(4-chlorophenyl)-3,9-dimethyl-2-(pyridin-3-ylethynyl)-6H-thieno[3,2-f][1,2,4]triazolo[4,3-a][1,4]diazepin-6-yl)-1-morpholinoethan-1-one], the IC50 on recombinant BRD4 BD1 (setting [1]) amounted to 6.1 nM; in the assay on MDA-MB-231 (setting [2]) it was 103 nM; in the assay on MOLM-13 (setting [4]), 9.2 nM; on recombinant BRD4 BD2 (setting [3]) it was 27.7 nM.
For `Cc1c(C#Cc2ccc(N)nc2)sc2c1C(c1ccc(Cl)cc1)=N[C@@H](CC(=O)N1CCN(C)CC1)c1nnc(C)n1-2` [Compound 120, (S)-2-(2-((6-aminopyridin-3-yl)ethynyl)-4-(4-chlorophenyl)-3,9-dimethyl-6H-thieno[3,2-f][1,2,4]triazolo[4,3-a][1,4]diazepin-6-yl)-1-(4-methylpiperazin-1-yl)ethan-1-one], the IC50 on recombinant BRD4 BD1 (setting [1]) was determined as 5.3 nM; with MDA-MB-231 (setting [2]), 9.74 nM; with MOLM-13 (setting [4]), 9.64 nM; at recombinant BRD4 BD2 (setting [3]), 4.9 nM.
For the compound `Cc1nnc(C[C@@H]2N=C(c3ccc(Cl)cc3)c3c(sc(C#Cc4ccccn4)c3C)-n3c(C)nnc32)o1` [Compound 129, (S)-2-((4-(4-chlorophenyl)-3,9-dimethyl-2-(pyridin-2-ylethynyl)-6H-thieno[3,2-f][1,2,4]triazolo[4,3-a][1,4]diazepin-6-yl)methyl)-5-methyl-1,3,4-oxadiazole], the figures for the IC50 at recombinant BRD4 BD1 (setting [1]), with MDA-MB-231 (setting [2]) and at recombinant BRD4 BD2 (setting [3]) were 9.4 nM, 6 nM and 27.6 nM, respectively.
As to `C#Cc1sc2c(c1C)C(c1ccc(Cl)cc1)=NCc1nnc(C)n1-2` [compound 19, 4-(4-chlorophenyl)-2-ethynyl-3,9-dimethyl-6H-thieno[3,2-f][1,2,4]triazolo[4,3-a][1,4]diazepine], the values for the concentration for half-maximal inhibition (IC50) at recombinant BRD4 BD1, in the assay with MOLM-13 (setting [5]) and at recombinant BRD4 BD2 were 191 nM, 2120 nM and 227 nM, respectively.
On to `C#Cc1sc2c(c1C)C(c1ccc(Cl)cc1)=N[C@@H](C)c1nnc(C)n1-2` [compound 20, (S)-4-(4-chlorophenyl)-2-ethynyl-3,6,9-trimethyl-6H-thieno[3,2-f][1,2,4]triazolo[4,3-a][1,4]diazepine], for which the results for the IC50 on recombinant BRD4 BD1, in the assay with MOLM-13 (setting [5]) and at recombinant BRD4 BD2 were 103 nM, 16 nM and 41.1 nM, respectively.

What is called IC50 is the concentration at which inhibition is half-maximal.

The values above are taken from patent US11046709B2, “Fused 1,4-diazepines as BET bromodomain inhibitors” (THE REGENTS OF THE UNIVERSITY OF MICHIGAN, priority 2017, dated 2021).
